Results from article PMC6191125, “Peptidoglycan potentiates the membrane disrupting effect of the carboxyamidated form of DMS-DA6, a Gram-positive selective antimicrobial peptide isolated from Pachymedusa dacnicolor skin” (PLoS ONE, 2018).
Converted amounts (≈) assume the structure as drawn. Residues, ends and D or L forms follow the SMILES beside them.

Legend:
S. aureus DAR 5829 = format: cell-based, Staphylococcus aureus; conditions: S. aureus DAR 5829, multi-resistant strain
Text: (§1) Gram-negative bacterial strains, Escherichia coli ATCC 8739, Escherichia coli ATCC 35218, Escherichia coli ML 35p, Escherichia coli K12, Pseudomonas aeruginosa ATCC 27853, and Gram-positive bacterial strains, Enterococcus faecalis ATCC29212, Kocuria rhizophila ATCC 9341, Staphylococcus aureus ATCC 6538, Staphylococcus aureus ATCC 29213, Staphylococcus aureus ST 1065, Staphylococcus epidermidis BM 3302, and Bacillus subtilis subsp. subtilis CIP 52.65, as well as two multiresistant strains (Staphylococcus aureus DAR 5829 (http://www.ncbi.nlm.nih.gov/bioproject/228435) and Enterococcus faecium BM 4147 [20] were cultured as described previously. The minimal inhibitory concentration (MIC) of the peptides was determined by the microtiter broth dilution method. Overnight precultures were subcultured in Luria Bertani (LB) medium at 37°C with vigorous shaking until mid-log phase (~2h) and diluted to 10^7 cfu/mL. Peptide solutions were prepared at different concentrations (from 2 to 500 μM) by successive 2-fold dilutions in water from 1 mM stock solutions. In each row of a 96-well nonbinding surface plate, 90 μL of bacteria were incubated with 10 μL of peptide solutions for 18 h at 37°C. The final peptide concentrations ranged from 0.2 to 100 μM. Cell growth was evaluated by visual inspection and absorbance at 600 nm to determine the lowest concentration of peptide that prevented cell growth. Wells were either opaque, indicating stationary phase growth, or transparent indicating no growth. The lowest concentration showing no visible growth was considered as the MIC. After measurement of the MIC, the bactericidal activity was determined by the addition of resazurin dye (30 μL, 0.01% w/v) to each well [22]. The plates were further incubated at 37°C for 18 h. Wells in which the dye turned pink indicated live bacteria, whereas wells in which the dye remained blue indicated dead bacteria. The minimal bactericidal concentration (MBC) is the lowest concentration with blue coloration (99.9% of bacteria were killed). Three to five independent assays were performed in triplicate. Positive controls correspond to medium plus 0.2% formaldehyde and negative controls to medium without peptide.

S. aureus ATCC 6538 = format: cell-based, Staphylococcus aureus
Text: as §1

S. aureus ATCC 29213 = format: cell-based, Staphylococcus aureus
Text: as §1

S. aureus ST 1065 = format: cell-based, Staphylococcus aureus
Text: as §1

K. rhizophila ATCC 9341 = format: cell-based, Kocuria rhizophila
Text: as §1

E. faecalis ATCC 29212 = format: cell-based, Enterococcus faecalis
Text: as §1

S. epidermidis BM3302 = format: cell-based, Staphylococcus epidermidis
Text: as §1

A549 cells = assay: Cytotoxicity, trypan blue exclusion; format: cell-based; conditions: A549 human lung carcinoma cells, 2-hour incubation at 37°C, 5% CO2, concentrations as high as 100 μM; 3 independent experiments in triplicate
Description: A549 cells (ATCC CCL-185), a human lung carcinoma cell line, were cultivated at 37°C, humid atmosphere and 5% CO2, in Petri dishes with DMEM Advanced medium (Gibco) supplemented with 5% of fetal bovine serum (FBS), 2 mM of glutamine, 100 U of penicillin and 50 μg/mL of streptomycin (Gibco). When the cells reached 80% confluence, the medium was discarded and the cells were washed with PBS 1×, before being treated with Trypsin 1× for 2 minutes to detach them form the culture dish. Cells were then resuspended in DMEM medium, seeded in a 48-well culture plate (500 000 cells/well), and either form of DMS-DA6 solubilized in PBS 1× was added and incubated for 2 hours at 37°C, 5% CO2. DMSO 30% was used as a positive control to induce cell death, and DMEM medium as negative control. After incubation, cell viability was assessed by trypan blue exclusion.

E. faecium BM 4147 = format: cell-based, Enterococcus faecium; conditions: E. faecium BM 4147, multi-resistant strain
Text: as §1

E. coli ATCC 35218 = format: cell-based, Escherichia coli; conditions: LB, 10^7 cfu/mL, 18 h at 37°C, peptide 0.2-100 μM, averaged over >=3 independent experiments in triplicate
Text: as §1

E. coli ATCC 8739 = format: cell-based, Escherichia coli
Text: as §1

E. coli ML 35p = format: cell-based, Escherichia coli; conditions: LB, 10^7 cfu/mL, 18 h at 37°C, peptide 0.2-100 μM, averaged over >=3 independent experiments in triplicate
Text: as §1

E. coli K12 = format: cell-based, Escherichia coli; conditions: LB, 10^7 cfu/mL, 18 h at 37°C, peptide 0.2-100 μM, averaged over >=3 independent experiments in triplicate
Text: as §1

[1] = tested on: Ps. aeruginosa ATCC 27853; format: cell-based, Pseudomonas aeruginosa; conditions: LB, 10^7 cfu/mL, 18 h at 37°C, peptide 0.2-100 μM, averaged over >=3 independent experiments in triplicate
Text: as §1, with “Wells were either opaque, indicating stationary phase growth, or transparent indicating no growth. The lowest concentration showing no visible growth was considered as the MIC. After measurement of the MIC, the bactericidal activity was determined by the addition of resazurin dye (30 μL, 0.01% w/v) to each well [22]. The plates were further incubated at 37°C for 18 h. Wells in which the dye turned pink indicated live bacteria, whereas wells in which the dye remained blue indicated dead bacteria. The minimal bactericidal concentration (MBC) is the lowest concentration with blue coloration (99.9% of bacteria were killed). Three to five independent assays were performed in triplicate. Positive controls correspond to medium plus 0.2% formaldehyde and negative controls to medium without peptide.” left out

B. subtilis CIP 52.65 = format: cell-based, Bacillus subtilis subsp. subtilis
Text: as §1

[2] = LB, 10^7 cfu/mL, 18 h at 37°C, averaged over >=3 independent experiments in triplicate
[3] = resazurin dye added after MIC, further 18 h at 37°C, 99.9% killed, averaged over >=3 experiments in triplicate

Structure (SMILES): CC[C@H](C)[C@H](NC(=O)CNC(=O)[C@H](Cc1c[nH]c2ccccc12)NC(=O)[C@@H](NC(=O)CN)C(C)C)C(=O)N[C@@H](C)C(=O)N[C@@H](CCCCN)C(=O)N[C@H](C(=O)N[C@@H](C)C(=O)NCC(=O)N[C@@H](CCCCN)C(=O)N[C@H](C(=O)N[C@@H](CC(C)C)C(=O)NCC(=O)N[C@@H](CC(N)=O)C(=O)N[C@H](C(=O)N[C@@H](CC(C)C)C(=O)N1CCC[C@H]1C(=O)N[C@@H](Cc1c[nH]cn1)C(=O)N[C@H](C(=O)N[C@@H](Cc1ccccc1)C(=O)N[C@@H](CO)C(=O)N[C@@H](CO)C(=O)N[C@@H](CC(N)=O)C(=O)N[C@@H](CCC(N)=O)C(=O)N[C@@H](CO)C(=O)O)C(C)C)[C@@H](C)CC)C(C)C)[C@@H](C)CC [DMS-DA6-OH] (H-GVWGIAKIAGKVLGNILPHVFSSNQS-OH)
- MIC (S. aureus DAR 5829; [2]): 50 µM (≈ 135 µg/mL)
- MBC (S. aureus DAR 5829; [3]): 50 µM (≈ 135 µg/mL)
- MIC (S. aureus ATCC 6538; [2]): 12.5 µM (≈ 33.7 µg/mL)
- MBC (S. aureus ATCC 6538; [3]): 12.5 µM (≈ 33.7 µg/mL)
- MIC (S. aureus ATCC 29213; [2]): 6.25 µM (≈ 16.8 µg/mL)
- MBC (S. aureus ATCC 29213; [3]): 25 µM (≈ 67.3 µg/mL)
- MIC (S. aureus ST 1065; [2]): 25 µM (≈ 67.3 µg/mL)
- MBC (S. aureus ST 1065; [3]): 25 µM (≈ 67.3 µg/mL)
- MIC (K. rhizophila ATCC 9341; [2]): 6.25 µM (≈ 16.8 µg/mL)
- MBC (K. rhizophila ATCC 9341; [3]): 12.5 µM (≈ 33.7 µg/mL)
- MIC (E. faecalis ATCC 29212; [2]): 100 µM (≈ 269 µg/mL)
- MBC (E. faecalis ATCC 29212; [3]): 100 µM (≈ 269 µg/mL)
- MIC (S. epidermidis BM3302; [2]): 25 µM (≈ 67.3 µg/mL)
- MBC (S. epidermidis BM3302; [3]): 25 µM (≈ 67.3 µg/mL)
- death of A549 cells (trypan blue exclusion) (A549 cells): neither DMS-DA6-OH (net charge +2) nor DMS-DA6-NH2 (net charge +3) resulted in the death
- MIC (E. faecium BM 4147; [2]): 50 µM (≈ 135 µg/mL)
- MBC (E. faecium BM 4147; [3]): 100 µM (≈ 269 µg/mL)
- MIC (E. coli ATCC 35218): >100 µM
- MIC (E. coli ATCC 8739; [2]): 50 µM (≈ 135 µg/mL)
- MBC (E. coli ATCC 8739; [3]): 100 µM (≈ 269 µg/mL)
- MIC (E. coli ML 35p): >100 µM
- MIC (E. coli K12): >100 µM
- MIC [1]: >100 µM
- intact peptide remaining: > 90%
- MIC (B. subtilis CIP 52.65; [2]): 12.5 µM (≈ 33.7 µg/mL)
- MBC (B. subtilis CIP 52.65; [3]): 12.5 µM (≈ 33.7 µg/mL)
